In patent US20240287063A1, “METHIONINE ADENOSYLTRANSFERASE 2A INHIBITOR” (NANJING CHIA TAI TIANQING PHARMACEUTICAL CO., LTD., priority 2021, published 2024):

Columns and labels:
[1] = system: HCT116 MTAP−/− subcutaneous xenograft tumors; assay: In vivo effect experiment of HCT116 MTAP−/− subcutaneous xenograft tumors in nude mice
Procedure: Female Nu/Nu nude mice (6-8 weeks old, Beijing Vital River Laboratory Animal Technology Co., Ltd.) were raised in an SPF animal room at a temperature of 20° C.-25° C., relative humidity of 40%-70%, and light and dark lighting for 12 hours each; and animals can freely drink and eat. The animals were adaptively fed before experiment.
HCT116 MTAP^−/− cells (Horizon) were cultured in vitro for proliferation, cells in logarithmic growth phase were collected and resuspended in a serum-free RPMI-1640 medium, and the cell concentration was adjusted to 6.0×10^7 cells/mL; and 100 μL of the cell suspension was injected subcutaneously into the right anterior armpit of each nude mouse by using a 1 mL syringe, the status of the animals was observed regularly, and the growth of transplanted tumors was monitored regularly.
When the tumor volume reached 100-300 mm^3, animals with too large or too small tumor volume or uncertain tumor formation were eliminated, and tumor bearing mice with good health and similar tumor volume were selected and randomly grouped, 6 mice in each group; the administration group received daily intragastric administration (AG-270: 50 mg/kg, with a structure shown below; compound to be tested: 1-7.5 mg/kg); and the control group was intragastrically administrated with the same volume of blank solvent. In the administration period, the tumor diameter was measured twice a week, the tumor volume was calculated, the animals were weighed, and their weight was recorded.
A formula for calculating tumor volume (TV) is: Tv=½×a×b^2, wherein a represents long diameter of the tumor, and b represents short diameter of the tumor.
Experimental data is calculated and statistically processed by using Microsoft Office Excel 2007 software. Unless otherwise specified, the data were expressed as mean±standard error (Mean SEM), and t-test is used for comparison between two groups.
Growth curves of tumor volume in each group are shown in FIG. 1, results of SAM test in tumors of each group are shown in FIG. 2, and the mean tumor volume and SEM in each group are shown in Table 2 below: […]

MAT2A enzyme = target: T1, MAT2A enzyme (Homo sapiens, UniProt P31153); assay: Enzymatic testing method for MAT2A (Biomol Green, OD620); format: biochemical; details: score by IC50 for inhibiting MAT2A; read-out: MAT2A inhibition score
T1 construct: purchased BPS 71401
T1 sequence (P31153 whole entry): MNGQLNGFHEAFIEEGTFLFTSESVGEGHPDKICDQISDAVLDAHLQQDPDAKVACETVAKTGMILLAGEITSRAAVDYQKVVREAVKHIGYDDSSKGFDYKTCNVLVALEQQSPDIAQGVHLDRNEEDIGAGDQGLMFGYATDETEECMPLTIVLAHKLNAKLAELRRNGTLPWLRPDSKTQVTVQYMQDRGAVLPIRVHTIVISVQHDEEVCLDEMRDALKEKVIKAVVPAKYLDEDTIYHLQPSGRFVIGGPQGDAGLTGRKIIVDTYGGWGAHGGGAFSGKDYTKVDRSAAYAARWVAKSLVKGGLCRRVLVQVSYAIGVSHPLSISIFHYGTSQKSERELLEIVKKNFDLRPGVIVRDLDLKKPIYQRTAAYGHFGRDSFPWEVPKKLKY
Procedure: • a) A 5×MAT2A test buffer (250 mM Tris-HCl, pH 8.0; 250 mM KCl; 75 mM MgCl2; 0.025% BSA; 0.05% Brij35; 1.5 mM EDTA) was first prepared and partially diluted to 1× for later use; • b) Preparation and addition of MAT2A enzyme (BPS, 71401): the MAT2A enzyme was prepared into 3.674 ng/L by using the 1×MAT2A test buffer (1.67×, final concentration 2.20 ng/L), a BioTek (MultiFlo FX) automatic liquid separator was used, 15 μL of 1.67×MAT2A enzyme solution was added to compound test wells and negative control wells respectively, and 15 μL of 1×MAT2A test buffer was added to blank control wells; • c) Preparation and addition of a compound: a compound to be tested was diluted with DMSO from 10 mM stock solution to 100 μM, a positive drug AGI-24512 was diluted under the same conditions, and the diluted compound and positive drug were automatically sprayed into each well by using a Tecan compound titrator (D300e) according to preset concentration gradients, where the spray volume was little and negligible. The concentration gradient was initially 1 μM, the dilution was implemented by ½ log, and a total of 8 gradients were set. Centrifugation at 2500 rpm for 30 s and incubation at 25° C. for 30 min were performed; • d) Preparation of ATP: 10 mM ATP (Sigma, A7699) was diluted with 1×MAT2A test buffer to 700 μM for later use; • e) Preparation and addition of a substrate and ATP mixture: 5×MAT2A test buffer, 3 μL/well; 750 μM L-methionine (Adamas, 01100469), 2.5 μL/well; 700 μM ATP, 2.5 μL/well; and double distilled water, 2 μL/well. A total amount of required mixture was prepared according to the number of test wells, and 10 μL of the mixture was added to each well by using the BioTek (MultiFlo FX) automatic liquid separator, followed by centrifugation at 2500 rpm for 30 s and reaction at 25° C. for 150 min; • f) Addition of Biomol Green detection reagent: 50 μL of Biomol Green (Enzo, BML-AK111) was added to each well by using the BioTek (MultiFlo FX) automatic liquid separator, followed by centrifugation at 2500 rpm for 30 s and incubation at 25° C. for 20 minutes; • g) After the reaction, OD620 values were read by using a Perkin Elmer (Envision 2105) multifunctional plate reader.
A formula for calculating an inhibition rate was as follows: […]
Wherein, • % Inhibition: inhibition rate % • ODsample: OD620 value in a sample well; • ODmin: representing a mean OD620 value of blank control wells without the enzyme or compound to be tested; • ODmax: representing a mean OD620 value of negative control wells with the enzyme and without the compound.
Then a dose-effect curve log(inhibitor) vs. response-Variable slope was fitted by usingGraphPad Prism 5 software to obtain an IC50 value of compound for MAT2A enzyme inhibition.

HCT116 MTAP −/− cells = assay: Cell testing method: HCT116 MTAP-/- cell proliferation inhibition (CellTiter-Glo, 120 h); format: cell-based; details: Homo sapiens, HCT-116; score by IC50 for inhibiting HCT116 MTAP−/− cells
Procedure: HCT116 MTAP −/− cells (purchased from Horizon Discovery): human colorectal cancer cell lines with MTAP gene deletion were cultured in medium RPMI 1640+10% FBS (Fetal bovine serum). On day 0 of the experiment, the live cell density of the foregoing cells in logarithmic growth phase was adjusted to 5000 cells/ml, the cells were inoculated to a 96-well plate by an amount of 100 μl/well, and a blank group was set in parallel; and the inoculated cell plate was put into a 37° C., 5% CO2 incubator for overnight culture.
On day 1 of the experiment, the overnight cultured cell plate was taken out, the supernatant was discarded, 80 μl of serum-free RPMI 1640 medium was added to each well, and place the cells in an incubator for starvation cultivation for 4 h. The compound to be tested was dissolved in DMSO (dimethyl sulfoxide) to prepare a 10 mM compound stock solution. After starvation, the cell plate was taken out, and 80 μl of RPMI 1640+20% FBS medium was added to each well; the cell plate was placed on an automatic liquid dispenser D300e (Tecan), and a dosing program was set as follows: a maximum concentration of the compound to be tested was 30 μM, the compound was diluted with DMSO by a 3 times concentration gradient, there was a total of 10 concentrations, two duplicate wells were set for each concentration, and the DMSO final concentration in each well of the 96-well plate was 0.3%, v/v. The pre-prepared 10 mM stock solution of the compound to be tested was taken out, and the above dosing program was run for dosing. After the dosing was completed, the cell plate was placed in incubator and culture for 120 h.
On day 6 of the experiment, the cell plate was taken out, 50 μl of CellTiter-Go® (purchased from Promega) was added to each well, and fluorescence signal was measured on Envision (PerkinElmer) according to operation procedures in the manual.
A dose-effect curve: log(inhibitor) vs. response-Variable slope was fitted by using GraphPad Prism 5 software to obtain an IC50 value of the compound for inhibiting cell proliferation inhibition. A formula for calculating an inhibition rate was: […]
Wherein, • Signal value of tested compound: mean fluorescence signal of cells group+medium group+compound group; • Signal value of blank group: mean fluorescence signal of medium group; • Signal value of negative control group: mean fluorescence signal of cells group+medium group.

## Cn1cc2cc(-c3cn4ccc(OCC(F)(F)F)nc4c(-c4ccc(OC(F)F)cc4)c3=O)ccc2n1 [Example 22, 9-[4-(difluoromethoxy)phenyl]-7-(2-methyl-2H-indazol-5-yl)-2-(2,2,2-trifluoroethoxy)-8H-pyrido[1,2-a]pyrimidin-8-one]
[1]; 7.5 mg/kg daily intragastric, day 1 of administration
  Tumor volume, mean volume: 152 mm^3
[1]; 7.5 mg/kg daily intragastric, day 4 of administration
  Tumor volume, mean volume: 173 mm^3
[1]; 7.5 mg/kg daily intragastric, day 6 of administration
  Tumor volume, mean volume: 180 mm^3
[1]; 7.5 mg/kg daily intragastric, day 8 of administration
  Tumor volume, mean volume: 212 mm^3
[1]; 7.5 mg/kg daily intragastric, day 11 of administration
  Tumor volume, mean volume: 267 mm^3
[1]; 7.5 mg/kg daily intragastric, day 13 of administration
  Tumor volume, mean volume: 324 mm^3
[1]; 7.5 mg/kg daily intragastric, day 15 of administration
  Tumor volume, mean volume: 375 mm^3
MAT2A enzyme
  IC50: < 50 nM
HCT116 MTAP −/− cells
  IC50: < 150 nM

## O=c1c(-c2ccc(OC(F)F)cc2)cn2ccc(C3CC3)nc2c1-c1ccc(OC(F)F)cc1 [Example 23, 2-cyclopropyl-7,9-bis[4-(difluoromethoxy)phenyl]-8H-pyrido[1,2-a]pyrimidin-8-one]
[1]; 1 mg/kg daily intragastric, day 1 of administration
  Tumor volume, mean volume: 152 mm^3
[1]; 1 mg/kg daily intragastric, day 4 of administration
  Tumor volume, mean volume: 198 mm^3
[1]; 1 mg/kg daily intragastric, day 6 of administration
  Tumor volume, mean volume: 205 mm^3
[1]; 1 mg/kg daily intragastric, day 8 of administration
  Tumor volume, mean volume: 238 mm^3
[1]; 1 mg/kg daily intragastric, day 11 of administration
  Tumor volume, mean volume: 266 mm^3
[1]; 1 mg/kg daily intragastric, day 13 of administration
  Tumor volume, mean volume: 284 mm^3
[1]; 1 mg/kg daily intragastric, day 15 of administration
  Tumor volume, mean volume: 312 mm^3
[1]; 2.5 mg/kg daily intragastric, day 1 of administration
  Tumor volume, mean volume: 153 mm^3
[1]; 2.5 mg/kg daily intragastric, day 4 of administration
  Tumor volume, mean volume: 190 mm^3
[1]; 2.5 mg/kg daily intragastric, day 6 of administration
  Tumor volume, mean volume: 196 mm^3
[1]; 2.5 mg/kg daily intragastric, day 8 of administration
  Tumor volume, mean volume: 193 mm^3
[1]; 2.5 mg/kg daily intragastric, day 11 of administration
  Tumor volume, mean volume: 208 mm^3
[1]; 2.5 mg/kg daily intragastric, day 13 of administration
  Tumor volume, mean volume: 190 mm^3
[1]; 2.5 mg/kg daily intragastric, day 15 of administration
  Tumor volume, mean volume: 191 mm^3
MAT2A enzyme
  IC50: < 50 nM
HCT116 MTAP −/− cells
  IC50: < 150 nM

## Cn1cc2cc(-c3cn4ccc(C5CC5)nc4c(-c4ccc(OC(F)F)cc4)c3=O)ccc2n1 [Example 25, 2-cyclopropyl-9-[4-(difluoromethoxy)phenyl]-7-(2-methyl-2H-indazol-5-yl)-8H-pyrido[1,2-a]pyrimidin-8-one]
[1]; 5 mg/kg daily intragastric, day 1 of administration
  Tumor volume, mean volume: 152 mm^3
[1]; 5 mg/kg daily intragastric, day 4 of administration
  Tumor volume, mean volume: 174 mm^3
[1]; 5 mg/kg daily intragastric, day 6 of administration
  Tumor volume, mean volume: 186 mm^3
[1]; 5 mg/kg daily intragastric, day 8 of administration
  Tumor volume, mean volume: 219 mm^3
[1]; 5 mg/kg daily intragastric, day 11 of administration
  Tumor volume, mean volume: 305 mm^3
[1]; 5 mg/kg daily intragastric, day 13 of administration
  Tumor volume, mean volume: 378 mm^3
[1]; 5 mg/kg daily intragastric, day 15 of administration
  Tumor volume, mean volume: 417 mm^3
MAT2A enzyme
  IC50: < 50 nM
HCT116 MTAP −/− cells
  IC50: < 150 nM

## Cc1cc(NCC(F)(F)F)nc2c(-c3ccc(OC(F)F)cc3)c(=O)c(-c3ccc(OC(F)F)cc3)cn12 [Example 41, 7,9-bis(4-(difluoromethoxy)phenyl)-4-methyl-2-((2,2,2-trifluoroethyl)amino)-8H-pyrido[1,2-a]pyrimidin-8-one]
MAT2A enzyme
  IC50: < 50 nM
HCT116 MTAP −/− cells
  IC50: < 150 nM

## Cc1cn2cc(-c3ccc(OC(F)F)cc3)c(=O)c(-c3ccc(OC(F)F)cc3)c2nc1NCC(F)(F)F [Example 42, 7,9-bis(4-(difluoromethoxy)phenyl)-3-methyl-2-((2,2,2-trifluoroethyl)amino)-8H-pyrido[1,2-a]pyrimidin-8-one]
MAT2A enzyme
  IC50: < 50 nM
HCT116 MTAP −/− cells
  IC50: 150 to 400 nM
